Calls of active or inactive are those of the source. The calls are words filed in the database; no cut-off is given here.
Columns and labels:
[1] = Cytotoxicity against African green monkey Vero cells assessed as cell viability at 25 uM by MTT assay relative to control; type: cell-based; details: chlorocebus sabaeus, read-out: Activity
[2] = Cytotoxicity against African green monkey Vero cells assessed as cell viability at 50 uM by MTT assay relative to control; type: cell-based; details: chlorocebus sabaeus, read-out: Activity
[3] = Cytotoxicity against African green monkey Vero cells assessed as cell viability at 100 uM by MTT assay relative to control; type: cell-based; details: chlorocebus sabaeus, read-out: Activity
Leishmania donovani [4] = test: Antileishmanial activity against promastigote stage of Leishmania donovani MHOM/IN/80/Dd8 harboring luciferase reporter gene at 25 uM after 48 hrs by Steady-Glo luminescence assay relative to control; type: functional; details: for inhibition at 25 µM: MHOM/IN/80/Dd8, 48 h
Leishmania donovani [5] = test: Antileishmanial activity against promastigote stage of Leishmania donovani MHOM/IN/80/Dd8 harboring luciferase reporter gene at 50 uM after 48 hrs by Steady-Glo luminescence assay relative to control; type: functional; details: for inhibition at 50 µM: MHOM/IN/80/Dd8, 48 h
Leishmania donovani [6] = test: Antileishmanial activity against promastigote stage of Leishmania donovani MHOM/IN/80/Dd8 harboring luciferase reporter gene at 100 uM after 48 hrs by Steady-Glo luminescence assay relative to control; type: functional; details: MHOM/IN/80/Dd8, 48 h
Leishmania donovani [7] = test: Antileishmanial activity against Leishmania donovani MHOM/IN/80/Dd8 amastigotes harboring luciferase reporter gene infected in mouse J774 cells at 25 uM after 72 hrs by Steady-Glo luminescence assay relative to control; type: functional; details: for inhibition at 25 µM: MHOM/IN/80/Dd8, J774, 72 h
Leishmania donovani [8] = test: Antileishmanial activity against Leishmania donovani MHOM/IN/80/Dd8 amastigotes harboring luciferase reporter gene infected in mouse J774 cells at 50 uM after 72 hrs by Steady-Glo luminescence assay relative to control; type: functional; details: MHOM/IN/80/Dd8, J774, 72 h
Leishmania donovani [9] = test: Antileishmanial activity against Leishmania donovani MHOM/IN/80/Dd8 amastigotes harboring luciferase reporter gene infected in mouse J774 cells at 100 uM after 72 hrs by Steady-Glo luminescence assay relative to control; type: functional; details: MHOM/IN/80/Dd8, J774, 72 h
Leishmania donovani [10] = test: Inhibition of ubiquinol cytochrome c reductase in Leishmania donovani promastigotes mitochondria at 2 uM using decylubiquinol as substrate in presence of cytochrome c relative to control
Leishmania donovani [11] = test: Inhibition of succinate-ubiquinone oxidoreductase in Leishmania donovani promastigotes mitochondria using succinate as substrate in presence fo DCPIP by photometry analysis relative to control; details: concentration not given here
[12] = Selectivity index, ratio of CC50 for mouse J774 cells to IC50 for antileishmanial activity against Leishmania donovani MHOM/IN/80/Dd8 amastigotes harboring luciferase reporter gene; type: toxicity; details: read-out: Ratio CC50/IC50
[13] = Selectivity index, ratio of CC50 for African green monkey Vero cells to IC50 for antileishmanial activity against Leishmania donovani MHOM/IN/80/Dd8 amastigotes harboring luciferase reporter gene; type: toxicity; details: read-out: Ratio CC50/IC50
[14] = Stability in simulated gastric fluid at 10 ug/ml measured after 2 hrs by UPLC analysis relative to control; type: ADME; details: read-out: Stability
[15] = Stability in simulated intestinal fluid at 10 ug/ml measured after 2 hrs by UPLC analysis relative to control; type: ADME; details: read-out: Stability
[16] = Stability in mouse plasma at 10 ug/ml measured after 2 hrs by UPLC analysis relative to control; type: ADME, cell-free; details: read-out: Stability
[17] = Stability in mouse liver microsomes assessed as compound remaining after 1 hr in presence of NADPH by UPLC analysis; type: ADME, Microsome; details: read-out: Stability
[18] = Half life in mouse liver microsomes after 1 hr in presence of NADPH by UPLC analysis; type: ADME, Microsome
[19] = Intrinsic clearance in mouse liver microsomes after 1 hr in presence of NADPH by UPLC analysis; type: ADME, Microsome
Leishmania donovani [20] = test: Induction of mitochondrial dysfunction in Leishmania donovani promastigotes assessed as reduction in mitochondrial membrane potential at 50 uM after 15 mins by JC-1 staining-based flow cytometric analysis (reference value: 7.73%); type: functional; parameters: scale not given: the % may be the effect or the level left

SMILES | viability at 25 µM [1] [%] | viability at 50 µM [2] [%] | viability at 100 µM [3] [%] | inhibition at 25 µM (Leishmania donovani [4]) [%] | inhibition at 50 µM (Leishmania donovani [5]) [%] | inhibition at 100 µM (Leishmania donovani [6]) [%] | inhibition at 25 µM (Leishmania donovani [7]) [%] | inhibition at 50 µM (Leishmania donovani [8]) [%] | inhibition at 100 µM (Leishmania donovani [9]) [%] | further results
CSc1ccc(C(=O)/C(=C/c2ccccn2)c2ccc(Cl)c(Cl)c2)cc1 | 97.9 | 93.6 | 89.6 | 53.4 | 74.6 | 76.6 | 17.5 | 36.2 | 38.5 | 
CCCCCCC1C(=O)O[C@H](C)[C@H](NC(=O)c2cccc(NC=O)c2O)C(=O)O[C@@H](C)[C@@H]1OC(=O)CC(C)C (stereo not given in full) |  |  |  |  |  |  |  |  |  | inhibition (Leishmania donovani [10]): > 93%
CCOC(=O)C(C(=O)c1ccc(OC)cc1)C(NC(C)=O)c1ccc(C(C)(C)C)cc1 (stereo not given) | 94.5 | 92.3 | 89.5 | 40.2 | 52.4 | 54.3 | 40.5 | 46.1 | 53.1 | 
CSc1ccc(C(=O)C(c2ccc(Cl)c(Cl)c2)C(NC(=O)c2ccccc2)c2cccc3ccccc23)cc1 (stereo not given) | 98.2 | 93.9 | 89.2 | 33.4 | 42.1 | 45.6 | 43.1 | 69.4 | 72.3 | 
CSc1ccc(C(=O)/C(=C/c2cccnc2)c2ccc(Cl)c(Cl)c2)cc1 | 95.7 | 89.6 | 88.6 | 46.7 | 80.4 | 83.2 | 34.3 | 59.3 | 62.1 | 
O=C(CC(=O)C(F)(F)F)c1ccco1 |  |  |  |  |  |  |  |  |  | inhibition (Leishmania donovani [11]): > 84%
CSc1ccc(C(=O)C(c2ccc(Cl)c(Cl)c2)C(NC(=O)c2ccc(C)cc2)c2cccc3ccccc23)cc1 (stereo not given) | 90.5 | 89.6 | 88.6 |  |  | 12.5 | 14.3 | 23.8 | 25.9 | inhibition (Leishmania donovani [4]): inactive; inhibition (Leishmania donovani [5]): inactive
CSc1ccc(C(=O)C(c2ccc(Cl)c(Cl)c2)C(NC(=O)c2cccc(C)c2)c2cc3ccccc3s2)cc1 (stereo not given) | 92.1 | 90.6 | 87.3 | 24.3 | 30.4 | 35.1 | 12 | 21.9 | 27.2 | 
CCOC(=O)C(C(=O)c1ccc(OC)cc1)C(NC(C)=O)c1ccc(C(C)C)cc1 (stereo not given) | 98.8 | 96.5 | 90.4 | 30.8 | 33.5 | 34 | 29.4 | 44.4 | 55.3 | 
CSc1ccc(C(=O)C(c2ccc(Cl)c(Cl)c2)C(NC(=O)c2ccc(Br)cc2)c2cccc3ccccc23)cc1 (stereo not given) | 92.8 | 90.2 | 88.5 | 56.3 | 74.9 | 77.2 | 21.2 | 38.3 | 39.2 | 
CCCCCCCCCCCCCCCCOP(=O)([O-])OCC[N+](C)(C)C [MILTEFOSINE] |  |  |  |  |  |  |  |  |  | selectivity ratio [12]: 5.8; selectivity ratio [13]: 5.3
CCOC(=O)C(C(=O)c1ccc(OC)cc1)C(NC(C)=O)c1cc(OC)ccc1Br (stereo not given) | 96.3 | 93.3 | 90.7 | 68 | 80.3 | 81.2 | 58.2 | 62.3 | 64.2 | remaining at 2 h, 10 ug/ml [14]: 71.1%; remaining at 2 h, 10 ug/ml [15]: 69.6%; remaining at 2 h, 10 ug/ml [16]: 6.97%; remaining at 1 h [17]: 57.8%; half-life [18]: 93 min; CLH [19]: 0.005 mL/min/mg
CCOC(=O)C(C(=O)c1ccc(OC)cc1)C(NC(C)=O)c1ccc(OC)c(OC)c1 (stereo not given) | 99.1 | 96.7 | 88.5 | 30.2 | 35 | 35.8 | 57.1 | 58.1 | 59.2 | 
CSc1ccc(C(=O)C(c2ccc(Cl)c(Cl)c2)C(NC(C)=O)c2cccc3ccccc23)cc1 (stereo not given) | 90.1 | 89.3 | 87.2 | 55.8 | 74.3 | 78.6 | 25 | 31.5 | 36.4 | 
CCOC(=O)C(C(=O)c1ccc(OC)cc1)C(NC(C)=O)c1cc(OC)c(OC)c(OC)c1 (stereo not given) | 97.8 | 94.3 | 88.9 | 28.3 | 40.2 | 43.1 | 25.4 | 51.1 | 51.3 | 
CSc1ccc(C(=O)C(c2ccc(Cl)c(Cl)c2)C(NC(=O)c2ccc(C)cc2)c2cc3ccccc3s2)cc1 (stereo not given) | 95.3 | 92.3 | 90.2 | 20.1 | 22.4 | 24.2 | 9.2 | 17.6 | 21 | 
N#CC(C#N)=NNc1cccc(Cl)c1 [CARBONYL CYANIDE M-CHLOROPHENYLHYDRAZONE] |  |  |  |  |  |  |  |  |  | Activity (Leishmania donovani [20]): 94.26%
CSc1ccc(C(=O)/C(=C/c2cc3ccccc3s2)c2ccc(Cl)c(Cl)c2)cc1 | 93.4 | 91.6 | 87 | 62.1 | 70.3 | 72.1 |  | 2.6 | 2.8 | inhibition (Leishmania donovani [7]): inactive
CSc1ccc(C(=O)C(c2ccc(Cl)c(Cl)c2)C(NC(=O)c2cccc(C)c2)c2cccc3ccccc23)cc1 (stereo not given) | 95.8 | 90.7 | 87.6 | 27.2 | 36.4 | 36.9 | 5.9 | 14.5 | 19.3 | 
CSc1ccc(C(=O)C(c2ccc(Cl)c(Cl)c2)C(NC(=O)c2ccccc2)c2cc3ccccc3s2)cc1 (stereo not given) | 97.2 | 92.4 | 88 | 22.4 | 30.5 | 33.2 | 11.8 | 16.5 | 18.3 | 

— ChEMBL document CHEMBL4406843, “β-Amino acid derivatives as mitochondrial complex III inhibitors of L. donovani: A promising chemotype targeting visceral leishmaniasis” (Eur J Med Chem, 2019)
